Experiments:
[1] = tested on: J774 A1 mouse macrophages adhesion to L929 fibroblasts; assay: Adhesion of J-774 A1 mouse macrophages to confluent L929 fibroblasts; type: cell-based; conditions: for Adhesion, Percent of Control: N=6
[2] = tested on: CF1 male mice, carrageenan induced edema; assay: Anti-inflammatory screen in mice (carrageenan induced foot edema); type: in vivo; conditions: for Percent of Control (induced edema): CF1 male mice, N=6
Text: Few reports in the literature indicate interaction at these receptor sites other than by peptides or antibodies. […] Blocking these receptors is desirable because the entire inflammation cascade of events is triggered by the early release of TNFa and IL-1. […] Radioisotopes were obtained from New England Nuclear [Dupont, Boston, MA] and substrates and co- factors were obtained from Sigma Chemical Co. [St. Louis, MO]. […] Cell lines were obtained from American Type Culture Collection [Rockville, MD]. In Vivo Tests Anti-inflammatory screen in mice: Male CF male mice weighing 28-32g obtained from Jackson Lab. […] Evaluation of the induced edema was made by injecting 2% carrageenan in 0.9% saline into the plantar region of the foot. The opposite foot injected with 0.9% isotonic saline was used as a base line. […] Salmonella abortus equi [Lot # 69F4003] […] Drugs from 2 to 16 mg/kg, I.P. were administered 2 hr prior and 2 hr post-injection of the LPS and then subsequently for every 24 hr for the length ofthe animals' lives. Deaths were recorded every 12 hr and continued for 96 hr. […] In vitro TNFa andIL-1 Measurements and Cellular Regulation IC-21 mouse macrophages were maintained in RPMI-1640 + 10% FCS + P/S. After the cells had grown to confluency, E. coli LPS at 10 Ixg/ml was added to the medium. Agents were incubated at 12.5 to 100 µM final concentration for 18 hr. The medium (100 btl) was collected for TNFCt determinations. Interleukin-1 [IL-1] release was determined using P388D1 cells which were maintained in RPMI-1640 + 10% FCS + P/S. The L929 bioassay was used to quantitate the TNF and the IL-1 levels. The L929 mouse fibroblasts were grown in DMEM + 10% FCS + P/S to confluency in 96 well plates and incubated with 100 tl ofmedium from […] or P388D cells after 18 hr. The cells were stained with 0.2% crystal violet in 20% MeOH and read at 580 nm using a Molecular Devices scanner (SOFT-max program). High Affinity Binding to Receptors on L929-106 Cells Two laCi of 125I-TNFct (human recombinant, 30 mCi/tg New England Nuclear) or 125I-IL-1 (70-120[.t Ci/lxg,New England Nuclear) was added to confluency L929 cells for 90 min or 5 hr, respectively with 25, 50 and 100 tM of the test compounds 12]. The cells were washed repeatedly with isotonic saline, pH.7.2 and aliquots counted. Prostaglandin cylcooxygenase activity Mouse J774AI macrophages maintained in Dulbecco's modified Eagle's medium + 15% FCS + P/S. Cells (5 x 106) were incubated with agents (5 to 100 ].tM final concentration) and 3H-arachidonic acid (100 Ci/mol) for 60 min at 37C in a CO2 incubator. The reaction was terminated with 2N HCI, the mixture extracted 2 X with ether, and the organic layer evaporated.

[3] = tested on: IL-8 high affinity receptor on chinese hamster ovarian carcinoma K-1 cells; assay: 125I-IL-8 high affinity binding to chinese hamster ovarian carcinoma K-1 cells; conditions: for 125I-IL-8 binding, Percent of Control: N=6
[4] = target: J774-A1 macrophage elastase; assay: Elastase activity in J774-A1 macrophages; type: biochemical, mouse

Molecule	Adhesion, Percent of Control ([1]; 5 μM, 2 Hours)	Adhesion, Percent of Control ([1]; 5 μM, 5 Hours)	Adhesion, Percent of Control ([1]; 5 μM, 90 min)	Adhesion, Percent of Control ([1]; 12.5 μM, 2 Hours)	Adhesion, Percent of Control ([1]; 12.5 μM, 5 Hours)	Adhesion, Percent of Control ([1]; 12.5 μM, 90 min)	Adhesion, Percent of Control ([1]; 25 μM, 2 Hours)	Adhesion, Percent of Control ([1]; 25 μM, 5 Hours)	Adhesion, Percent of Control ([1]; 25 μM, 90 min)	Adhesion, Percent of Control ([1]; 50 μM, 2 Hours)	Adhesion, Percent of Control ([1]; 50 μM, 5 Hours)	Adhesion, Percent of Control ([1]; 50 μM, 90 min)	Percent of Control (induced edema) ([2]; 16 mg/Kg X 2, I.P.)	125I-IL-8 binding, Percent of Control ([3]; 50 μM, 5 Hours)	125I-IL-8 binding, Percent of Control ([3]; 50 μM, 24 Hours)	reduction of IL-8 high affinity binding ([3]; 50 μM, 5 hr)	125I-IL-8 binding, Percent of Control ([3]; 100 μM, 24 Hours)	reduction of IL-8 high affinity binding ([3]; 24 hr)	IC50 Elastase J774-A1 ([4]; 120 min)	other results
CC(=O)Oc1c2cc(S(=O)(=O)[O-])cc1Cc1cc(S(=O)(=O)[O-])cc(c1OC(C)=O)Cc1cc(S(=O)(=O)[O-])cc(c1OC(C)=O)Cc1cc(S(=O)(=O)[O-])cc(c1OC(C)=O)Cc1cc(S(=O)(=O)[O-])cc(c1OC(C)=O)Cc1cc(S(=O)(=O)[O-])cc(c1OC(C)=O)Cc1cc(S(=O)(=O)[O-])cc(c1OC(C)=O)Cc1cc(S(=O)(=O)[O-])cc(c1OC(C)=O)C2.[Na+].[Na+].[Na+].[Na+].[Na+].[Na+].[Na+].[Na+] [Compound 8]	73 + 5% of Control	107 + 5% of Control	136 + 5% of Control	61 + 6% of Control	106 + 6% of Control	135 + 7% of Control	91 + 5% of Control	125 + 7% of Control	183 + 7% of Control	92 + 6% of Control	131 + 7% of Control	94 + 6% of Control	38+3% of Control	79 + 4% of Control	58 + 7% of Control	21-23%	51 + 6% of Control	greater than 40%	–	Percent of Control (induced edema) ([2]; 8 mg/Kg X 2, I.P.): 70 + 6% of Control; IC50 ([4]; 60 min): 10 to 30 µM; IC50 ([4]; 60 min, listed as #8): 24.5 µM; IC50 ([4]; 120 min): 350 µM
Pentosan sulfate [Pentosan polysulfate, reference compound]	75+7% of Control	103+5% of Control	329 + 12% of Control	53 + 6% of Control	108+7% of Control	363 + 16% of Control	66+ 5% of Control	169+6% of Control	260 + 9% of Control	110+6% of Control	187 + 7% of Control	176 +6% of Control	49+4% of Control	79 + 6% of Control	51 + 6% of Control	21-23%	47 + 8% of Control	greater than 40%	Increased	reduction of J774A1 macrophage adhesion ([1]; 12.5 μM, 2 hr): 47%
COc1c2cc(S(=O)(=O)[O-])cc1Cc1cc(S(=O)(=O)[O-])cc(c1OC)Cc1cc(S(=O)(=O)[O-])cc(c1OC)Cc1cc(S(=O)(=O)[O-])cc(c1OC)Cc1cc(S(=O)(=O)[O-])cc(c1OC)Cc1cc(S(=O)(=O)[O-])cc(c1OC)C2.[Na+].[Na+].[Na+].[Na+].[Na+].[Na+] [Compound 6]	123 + 6% of Control	88 + 5% of Control	137 + 6% of Control	77 + 6% of Control	109 + 6% of Control	133 + 5% of Control	118 + 7% of Control	131 + 6% of Control	128 + 7% of Control	122 + 6% of Control	119 + 5% of Control	103 + 7% of Control	48+3% of Control	54 + 5% of Control	65 + 7% of Control	–	55 + 4% of Control	–	Increased	reduction of edema ([2]; 16 mg/kg X 2): greater than 40%; reduction of IL-8 high affinity binding ([3]; at 5 hr and 24 hr): ~45%

— PMC2365101, “Anti-Inflammatory Activity of (Polyphenolic)-Sulfonates and Their Sodium Salts in Rodents” (Metal-Based Drugs, 1998)
